Patent EP0096293A1, “N-acetylglucosamine derivatives, process for their preparation and their use to combat malaria” (BEHRINGWERKE Aktiengesellschaft, priority 1982, dated 1983)
Structures can show the parent of a compound that is named as a salt.

Legend:
[1] = test system: P. falciparum-Merozoiten; assay: Invasion of human erythrocytes by P. falciparum merozoites in synchronous in vitro culture; type: cell-based; details: compared with other methyl glycosides (methyl gluco-, galacto-, fuco-, mannopyranosides)
[2] = test system: P. falciparum; assay: Intraerythrocytic growth of malaria parasites (toxicity to the parasite); type: cell-based; details: applicant's own finding, contrary to Vanderberg et al.
[3] = test system: P. falciparum-Merozoiten; details: synchronous in vitro culture, addition of the sugar; findings of Vanderberg et al. (Exp. Parasitol. 1981); cited from earlier work
[4] = test system: P. falciparum; details: findings of Vanderberg et al. (Exp. Parasitol. 1981); cited from earlier work

SMILES | invasionsinhibierende Wirkung [1] | intraerythrozytäre Parasiten-Wachstum (toxisch) [2] | Befall von Humanerythrozyten durch P. falciparum-Merozoiten [3] | intraerythrozytäre Wachstum der Malaria-Parasiten [4]
CO[C@@H]1O[C@H](CO)[C@@H](O)[C@H](O)[C@H]1NC(C)=O [β-DGlcNAcOMe, Methyl-2 -acetamido- 2 -desoxy-alpha oder beta-D-glucopyranosid] | stark erhöhte invasionsinhibierende Wirkung | nicht toxisch |  | 
N[C@H]1C(O)O[C@H](CO)[C@@H](O)[C@@H]1O (stereo partly drawn) [DGlcNH3Cl, D-Glucosaminhydrochlorid] |  |  | gehemmt | gehemmt
CC(=O)N[C@H]1C(O)O[C@H](CO)[C@@H](O)[C@@H]1O (stereo partly drawn) [DGlcNAc, N-Acetyl-D-glucosamin] |  | toxisch | gehemmt | nicht aber durch N-Acetyl-D-Glucosamin gehemmt
C[C@@H]1OC(O)[C@@H](O)[C@H](O)[C@@H]1O (stereo partly drawn) [L-Fucose] |  | nicht toxisch | gehemmt | gehemmt
CO[C@H]1O[C@H](CO)[C@@H](O)[C@H](O)[C@H]1NC(C)=O [α-DGlcNAcOMe, Methyl-2 -acetamido- 2 -desoxy-alpha oder beta-D-glucopyranosid] | stark erhöhte invasionsinhibierende Wirkung | nicht toxisch |  | 
